Laboratory results reported in PMC7445428, “Simplified dolutegravir dosing for children with HIV weighing 20 kg or more: pharmacokinetic and safety substudies of the multicentre, randomised ODYSSEY trial” (The Lancet. HIV, 2020).
Where two headings read alike, the source gives them in different places. Marks after values point to notes of the source that are not given here.

Assays:
[1] = set-up: species or system human
Description: The pharmacokinetic substudy for children weighing 25 kg to less than 40 kg was a within-subject, two-period, fixed-order, pharmacokinetic study with paediatric dolutegravir doses approved by the SRAs at the time of the study used in the first period and a higher (adult) dose of 50 mg as film-coated tablet in the second period. A child first completed 24-h intensive pharmacokinetic sampling after at least 1 week of receiving 25 mg film-coated tablets if they were in the 25 kg to less than 30 kg weight band or 35 mg (one 10 mg and one 25 mg film-coated tablet) if they were in the 30 to less than 40 kg weight band. The second 24-h pharmacokinetic profile was taken at least 1 week after the switch to a daily 50 mg film-coated tablet.
In a parallel pharmacokinetic substudy, children weighing 20 kg to less than 25 kg had 24-h intensive pharmacokinetic profiling on the once-daily dose of dolutegravir 25 mg film-coated tablet (part one). After review of the results, we did a subsequent substudy (part two) in children weighing 20 to less than 25 kg, investigating higher dolutegravir doses to achieve better exposures. On the basis of results of part one and to simplify dosing and future access to formulations, we studied the 50 mg adult film-coated tablet. Because we were concurrently investigating dispersible dolutegravir tablets in children weighing less than 20 kg (not reported here), we also studied a 30 mg dose given as six 5 mg dispersible tablets, which is bioequivalent to a 50 mg film-coated tablet,[16] as an option for children unable to swallow adult tablets. Dolutegravir 50 mg film-coated tablet or 30 mg dispersible tablet formulations were allocated by site. This substudy primarily enrolled children who had not participated in part one because children initially recruited in this weight band had gained weight and were no longer in the weight band.
To achieve steady-state, children attended their pharmacokinetic study visit day at least 7 days after starting on the investigated dolutegravir dose. We ascertained medication adherence during the last 3 days before the day of pharmacokinetic assessment to ensure that no doses had been missed. To construct a dolutegravir plasma concentration-time profile, blood samples of 2 mL were taken at baseline and 1, 2, 3, 4, 6, and 24 h after observed dolutegravir intake with 100 mL of water. To conform with adult comparator studies, participants fasted at least 3 h before dolutegravir intake, although an overnight fast was preferred. Dispersible tablets were dispersed in a small amount of water and immediately taken, followed by an additional intake of water up to a volume of 100 mL. We allowed no medications, other than nucleoside reverse transcriptase inhibitors, within 2 h after dolutegravir intake. Children fasted 2 h after dolutegravir intake before having a light breakfast (containing approximately 250 calories). During pharmacokinetic assessment days all food was provided at set times.
We refrigerated blood samples within 10 min and centrifuged them within 24 h of collection. Plasma was separated and stored at −80°C until shipping to the laboratory of the Department of Pharmacy, Radboudumc, Nijmegen, Netherlands for quantification with a validated liquid chromatography tandem mass spectrometry bioanalytical quantification method (lower limit of quantification of 0·01 mg/L).[18]
We included all participants consenting to inclusion in the pharmacokinetic substudies in the safety analyses. For the pharmacokinetic analyses, we considered haemolysed samples non-evaluable and excluded pharmacokinetic profiles if treatment non-adherence was likely (predefined when a predose concentration [C0] was >15 times below the concentration 24 h after observed drug intake (trough concentration [Ctrough]), if protocol violations had occurred, or if concomitant medications known to affect dolutegravir drug concentrations had been used. […]

[2] = Safety follow-up (serious, grade 3 or 4 adverse events) over 24 weeks in children of the pharmacokinetic substudies; type: in vivo, human
Description: Children enrolled in the pharmacokinetic substudies attended study visits following the main ODYSSEY trial protocol (visits every 12 weeks after week 4 from enrolment). Participants whose dose was increased to 30 mg dispersible tablets or the 50 mg film-coated tablet had additional safety visits at weeks 2, 4, and 12 after dose adaptation. At each visit, we did a clinical assessment, including haematology and biochemistry safety parameters. We ascertained serious adverse events (defined according to International Conference on Harmonisation Guideline for Good Clinical Practice), grade 3 and 4 clinical and laboratory events, and events resulting in modification of ART (any grade).
All children consenting to inclusion in a pharmacokinetic substudy contributed safety data from the start of each pharmacokinetic dose for 24 weeks or to last follow-up visit, whichever was earlier; no participant commenced a second pharmacokinetic dose before completing 24 weeks on the first pharmacokinetic dose with the exception of children weighing 25 kg to less than 40 kg crossing over from the doses approved by the SRAs at the time of the study the 50 mg film-coated tablet, with which follow-up could be shorter. As part of the ODYSSEY trial, an independent endpoint review committee who were masked to trial groups (third drug of ART regimen) reviewed all reported adverse events. We did descriptive analysis reporting follow-up and adverse events by dose and weight band in STATA (version 15.0). An independent data monitoring committee reviewed conduct, pharmacokinetic, and safety data from these substudies. The ODYSSEY trial is registered with ClinicalTrials.gov, NCT02259127.

[3] = system: plasma HIV-1 RNA; set-up: method as in PMID 22018760; details: adults, 96 weeks, cited from earlier work
[4] = set-up: method as in PMID 22183173; details: adult healthy volunteers, cited from earlier work
[5] = set-up: method as in earlier work; details: cited from earlier work
[6] = 20 to <25 kg, 9 patients (50 mg) FCT
[7] = 20 to <25 kg, 10 patients (30 mg) DT
[8] = 20 to <25 kg, 17 patients (25 mg) FCT
[9] = 25 to <30 kg, 17 patients (25 mg) FCT
[10] = 25 to <30 kg, 17 patients (50 mg) FCT
[11] = 30 to <40 kg, 11 patients (35 mg) FCT
[12] = 30 to <40 kg, 11 patients (50 mg) FCT

With C[C@@H]1CCO[C@H]2Cn3cc(C(=O)NCc4ccc(F)cc4F)c(=O)c(O)c3C(=O)N12 [dolutegravir] the “Children with individual Ctrough below 0·32 mg/L (in vivo EC90)” value ([1]; human, 24 h) was 12 (30%) n (%), the “AUC0-24h / Dose geometric mean ratio (90% CI), 50 mg FCT vs 25/35 mg FCT” value ([1]; human, in vivo) was 0∙91 (0∙85-0∙97) and the “Cmax / Dose geometric mean ratio (90% CI), 50 mg FCT vs 25/35 mg FCT” value ([1]; human, in vivo) was 0∙89 (0∙82-0∙96). The “GM Cmax higher than in adults on 50 mg twice-daily” value ([1]; human, in vivo) was 32%, the “GM Cmax higher than in adults on 50 mg twice-daily” value ([1]; human, in vivo, 50 mg) was 17% and the “Ctrough / Dose geometric mean ratio (90% CI), 50 mg FCT vs 25/35 mg FCT” value ([1]; human, in vivo, 24 h) was 0∙98 (0∙87-1∙10). The “Ctrough geometric mean ratio (90% CI), 50 mg FCT vs 30 mg DT” value ([1]; human, in vivo, 24 h) was 0∙99 (0∙57-1∙71), the “Equivalence, 50 mg FCT vs 30 mg DT” value ([1]; in vivo) was “Suggested” and the “Total adverse events (grade 3 or 4 or serious adverse event)” value (from here on “Total adverse events”) ([2]; 17 patients (25 mg) FCT) was 3 (18%) n (%). The “Anaemia (grade 3 or 4 asymptomatic laboratory event)” value (“Anaemia” for short) [2, 6] was 0 n (%), the “Cryptococcal meningitis (grade 3 or 4 clinical adverse event)” value (from here on “Cryptococcal meningitis”) [2, 6] was 0 n (%) and the “Grade 3 or 4 asymptomatic laboratory events” value [2, 6] was 0 n (%). The “Grade 3 or 4 clinical adverse events” value [2, 6] was 0 n (%), the “Neutropenia (grade 3 or 4 asymptomatic laboratory event)” value (“Neutropenia” below) [2, 6] was 0 n (%) and the “Thrombocytopenia and raised transaminases (grade 3 or 4 asymptomatic laboratory event)” value [2, 6] was 0 n (%). For the same compound, the “Anaemia” value [2, 7] was 0 n (%), the “Cryptococcal meningitis” value [2, 7] was 0 n (%) and the “Grade 3 or 4 asymptomatic laboratory events” value [2, 7] was 0 n (%). The “Grade 3 or 4 clinical adverse events” value [2, 7] was 0 n (%), the “Neutropenia” value [2, 7] was 0 n (%) and the “Thrombocytopenia and raised transaminases (grade 3 or 4 asymptomatic laboratory event)” value [2, 7] was 0 n (%). The “Anaemia” value [2, 8] was 0 n (%), the “Cryptococcal meningitis” value [2, 8] was 0 n (%) and the “Grade 3 or 4 asymptomatic laboratory events” value [2, 8] was 3 (18%) n (%). For the same compound, the “Grade 3 or 4 clinical adverse events” value [2, 8] was 0 n (%), the “Anaemia” value [2, 9] was 0 n (%) and the “Cryptococcal meningitis” value [2, 9] was 0 n (%). For the same compound, the “Grade 3 or 4 asymptomatic laboratory events” value [2, 9] was 0 n (%), the “Grade 3 or 4 clinical adverse events” value [2, 9] was 0 n (%) and the “Neutropenia” value [2, 9] was 0 n (%). The “Thrombocytopenia and raised transaminases (grade 3 or 4 asymptomatic laboratory event)” value [2, 9] was 0 n (%), the “Anaemia” value [2, 10] was 0 n (%) and the “Cryptococcal meningitis” value [2, 10] was 0 n (%). The “Grade 3 or 4 asymptomatic laboratory events” value [2, 10] was 1 (6%) n (%), the “Grade 3 or 4 clinical adverse events” value [2, 10] was 0 n (%) and the “Neutropenia” value [2, 10] was 1 (6%) n (%). The “Thrombocytopenia and raised transaminases (grade 3 or 4 asymptomatic laboratory event)” value [2, 10] was 0 n (%), the “Total adverse events” value [2, 10] was 1 (6%) n (%) and the Reportable adverse events ([2]; 28 children weighing 25 kg or more on 50 mg film-coated tablets, follow-up 24 weeks) was “three”. For the same compound, the “Anaemia” value [2, 11] was 0 n (%), the “Cryptococcal meningitis” value [2, 11] was 0 n (%) and the “Grade 3 or 4 asymptomatic laboratory events” value [2, 11] was 0 n (%). The “Grade 3 or 4 clinical adverse events” value [2, 11] was 0 n (%), the “Neutropenia” value [2, 11] was 0 n (%) and the “Thrombocytopenia and raised transaminases (grade 3 or 4 asymptomatic laboratory event)” value [2, 11] was 0 n (%). For the same compound, the “Anaemia” value [2, 12] was 1 (9%) n (%), the “Grade 3 or 4 asymptomatic laboratory events” value [2, 12] was 1 (9%) n (%) and the “Grade 3 or 4 clinical adverse events” value [2, 12] was 1 (9%) n (%). The “Neutropenia” value [2, 12] was 0 n (%), the “Thrombocytopenia and raised transaminases (grade 3 or 4 asymptomatic laboratory event)” value [2, 12] was 0 n (%) and the “Total adverse events” value [2, 12] was 2 (18%) n (%). The “Cryptococcal meningitis” value ([2]; 30 to <40 kg, 11 patients (50 mg) FCT, serious adverse event) was 1 (9%) ^** n (%), the “Adverse events considered related to dolutegravir” value ([2]; 47 children on 50 mg film-coated tablet or 30 mg dispersible tablets, reporting clinicians and endpoint review committee) was “none” and the “Sustained virological response rate (plasma HIV-1 RNA <50 copies per mL)” value ([3]; 10 mg film-coated tablet once daily) was 79%. The “Sustained virological response rate (plasma HIV-1 RNA <50 copies per mL)” value ([3]; 50 mg film-coated tablet once daily) was 88%, the “Increase of C24 with food compared with fasting” value (shortened to “Increase of C24 with food”) ([4]; high fat meal) was 73% and the “Increase of C24 with food” value ([4]; low fat meal) was 33%. For the same compound, the “Increase of C24 with food” value ([4]; moderate fat meal) was 45% and the “Bioequivalence of 30 mg dose as six 5 mg dispersible tablets to 50 mg film-coated tablet” value [5] was “bioequivalent”.
